Source: patent US7879887B2, “α-amino acid derivatives and medicaments containing the same as an active ingredient” (Nissan Chemical Industries, Ltd., priority 2006, dated 2011)

Tests used:
CDK1/Cyclin B complex = target: T1, CDK1/Cyclin B complex (Homo sapiens, UniProt P06493); test: In vitro kinase assay, CDK1/Cyclin B complex; type: biochemical; settings: recombinant protein (Upstate)
T1 construct: purchased Upstate Inc. 14-450
Summary of the method: (§1)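 Recombinant human enzymes assayed per supplier protocol. IC50 derived with compound-free wells set as 0% inhibition and compound- and enzyme-free wells as 100% inhibition.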

leukemia cell line KG-1a = test: Cell proliferation inhibitory activity, KG-1a; type: cell-based; settings: Homo sapiens, 96 h, cells counted 4 days later with Cell Counting Kit-8
Summary of the method: (§2)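 Each line, maintained as the supplier recommends, is incubated with test compound dilutions for 4 days (37° C, 5% CO2). Counting uses CCK-8; 0% inhibition corresponds to untreated cells, 100% to medium without cells or compound, and IC50 is calculated from these.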

[1] = test system: breast cancer cell line MDA-MB-231; test: Cell proliferation inhibitory activity, MDA-MB-231; type: cell-based; settings: Homo sapiens, 96 h, cells counted 4 days later with Cell Counting Kit-8
Method: (§3) Evaluations were carried out using colon carcinoma cell line SW620 (Cat. No. CCL-227), lung carcinoma cell line NCI-H460 (Cat. No. HTB-177), prostate cancer cell line DU 145 (Cat. No. HTB-81), breast cancer cell line MDA-MB-231 (Cat. No. HTB26) and leukemia cell line KG-1a (Cat. No. CCL-246.1) purchased from ATCC, pancreatic cancer cell line MIAPaCa-2 (Cat. No. CRL-1420) purchased from Dainippon Pharmaceutical, and ovarian cancer cell line IGROV1 received from the Netherland Cancer Institute. The cells were cultured under the conditions recommended by the supplier for each cell line, or with respect to IGROV1, according to the method described in Cancer Res. 59: 4559-4563, 1999. Cells suspended in media were added to solutions containing the test substances at various concentrations followed by culturing in a 5% CO2 incubator at 37° C. The numbers of cells were counted 4 days later with the Cell Counting Kit-8. IC50 values were calculated by assigning measured values in the case of not containing a test substance to an inhibition of 0%, and assigning measured values in the case of not containing a test substance or cells to an inhibition of 100%.

[2] = test system: ovarian cancer cell line IGROV1; test: Cell proliferation inhibitory activity, IGROV1; type: cell-based; settings: Homo sapiens, IGROV-1, 96 h, cells counted 4 days later with Cell Counting Kit-8
Method: as §3

[3] = test system: colon carcinoma cell line SW620; test: Cell proliferation inhibitory activity, SW620; type: cell-based, human; settings: Homo sapiens, SW-620, 96 h, cells counted 4 days later with Cell Counting Kit-8
Summary of the method: as §2

Aurora A = target: T2, Aurora A (Homo sapiens, UniProt O14965); test: In vitro kinase assay, Aurora A; type: biochemical; settings: recombinant protein (Upstate)
T2 construct: purchased Upstate Inc. 14-511
T2 sequence (O14965 1-403): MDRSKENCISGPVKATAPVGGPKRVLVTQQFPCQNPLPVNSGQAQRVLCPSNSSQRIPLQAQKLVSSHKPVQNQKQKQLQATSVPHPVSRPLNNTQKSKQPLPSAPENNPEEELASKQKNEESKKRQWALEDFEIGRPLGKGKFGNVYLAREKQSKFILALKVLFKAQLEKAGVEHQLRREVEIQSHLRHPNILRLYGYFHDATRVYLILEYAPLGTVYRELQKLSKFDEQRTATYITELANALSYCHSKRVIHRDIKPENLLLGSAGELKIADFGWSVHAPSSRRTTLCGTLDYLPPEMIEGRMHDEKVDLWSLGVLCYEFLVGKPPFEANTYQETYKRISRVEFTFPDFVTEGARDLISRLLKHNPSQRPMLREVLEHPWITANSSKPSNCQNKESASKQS
Summary of the method: as §1

[4] = test system: prostate cancer cell line DU 145; test: Cell proliferation inhibitory activity, DU 145; type: cell-based, human; settings: Homo sapiens, 96 h, cells counted 4 days later with Cell Counting Kit-8
Summary of the method: as §2

[5] = test system: lung carcinoma cell line NCI-H460; test: Cell proliferation inhibitory activity, NCI-H460; type: cell-based; settings: Homo sapiens, 96 h, cells counted 4 days later with Cell Counting Kit-8
Summary of the method: as §2

[6] = test system: pancreatic cancer cell line MIAPaCa-2; test: Cell proliferation inhibitory activity, MIAPaCa-2; type: cell-based; settings: Homo sapiens, MIA PaCa-2, 96 h; cells counted 4 days later, Cell Counting Kit-8
Method: as §3

T1 sequence (P06493 whole entry): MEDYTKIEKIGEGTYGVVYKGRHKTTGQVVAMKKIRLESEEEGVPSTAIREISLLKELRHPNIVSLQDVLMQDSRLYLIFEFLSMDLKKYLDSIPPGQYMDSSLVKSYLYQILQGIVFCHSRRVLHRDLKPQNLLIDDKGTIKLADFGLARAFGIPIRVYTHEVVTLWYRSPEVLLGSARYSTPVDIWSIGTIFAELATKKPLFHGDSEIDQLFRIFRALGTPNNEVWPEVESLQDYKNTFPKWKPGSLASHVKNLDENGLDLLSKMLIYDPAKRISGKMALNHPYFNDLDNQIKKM
T1 sequence (P14635 whole entry partner): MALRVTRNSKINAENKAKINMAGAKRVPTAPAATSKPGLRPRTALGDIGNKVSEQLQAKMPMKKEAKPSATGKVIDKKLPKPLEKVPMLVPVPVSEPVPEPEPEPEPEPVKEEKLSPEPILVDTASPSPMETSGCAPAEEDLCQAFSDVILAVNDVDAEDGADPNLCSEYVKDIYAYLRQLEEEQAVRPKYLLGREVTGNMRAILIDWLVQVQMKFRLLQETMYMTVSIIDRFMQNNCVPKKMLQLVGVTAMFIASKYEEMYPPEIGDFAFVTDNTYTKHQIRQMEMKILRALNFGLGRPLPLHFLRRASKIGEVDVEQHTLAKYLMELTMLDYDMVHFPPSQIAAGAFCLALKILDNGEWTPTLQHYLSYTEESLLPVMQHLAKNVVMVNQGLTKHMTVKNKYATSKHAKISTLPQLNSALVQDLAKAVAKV

Structure (SMILES)	IC50 (CDK1/Cyclin B complex)	IC50 (leukemia cell line KG-1a)	IC50 [1]	IC50 [2]	IC50 [3]	IC50 (Aurora A)	IC50 [4]	IC50 [5]	IC50 [6]
O=C(CNc1ccc(Cl)c(O)c1)Nc1nc2ccc3[nH]ncc3c2s1 [compound 6]	255 nM	< 100 nM	2600 nM	4300 nM	1500 nM	257 nM			
CC(=O)Nc1cc(NCC(=O)Nc2nc3ccc4[nH]ncc4c3s2)ccc1Cl [compound 16]		< 100 nM	4400 nM		1200 nM	278 nM	3200 nM	3200 nM	4400 nM
CC(C)(Nc1cccc(O)c1)C(=O)Nc1nc2ccc3[nH]ncc3c2s1 [compound 33]	115 nM	< 100 nM	2000 nM	2700 nM	400 nM	29 nM	1700 nM	3600 nM	4500 nM
CC(C)(Nc1ccc(Cl)cc1)C(=O)Nc1nc2ccc3[nH]ncc3c2s1 [compound 35]		< 100 nM			700 nM	428 nM	2500 nM		
CC(=O)Nc1cc(NC(C)(C)C(=O)Nc2nc3c(C(F)(F)F)cc4[nH]ncc4c3s2)ccc1Cl [compound 53]	420 nM	300 nM	4000 nM		1300 nM	227 nM	1500 nM	2400 nM	4700 nM
CNC(=O)c1cc(NC(C)(C)C(=O)Nc2nc3c(C(F)(F)F)cc4[nH]ncc4c3s2)ccc1Cl [compound 55]	73 nM	< 100 nM	3200 nM	2700 nM	300 nM	185 nM	900 nM	800 nM	4100 nM
CCNC(=O)c1cc(NC(C)(C)C(=O)Nc2nc3c(C(F)(F)F)cc4[nH]ncc4c3s2)ccc1F [compound 58]	186 nM	300 nM	4700 nM		500 nM		900 nM	1300 nM	4000 nM
CCNC(=O)c1cc(NC(C)(C)C(=O)Nc2nc3c(C(F)(F)F)cc4[nH]ncc4c3s2)ccc1Cl [compound 60]	73 nM	300 nM	4500 nM		300 nM	163 nM	900 nM	1500 nM	4400 nM
CC(C)(Nc1ccc(Cl)c(C(=O)NC2CC2)c1)C(=O)Nc1nc2c(C(F)(F)F)cc3[nH]ncc3c2s1 [compound 75]	128 nM	< 100 nM	3600 nM		500 nM	472 nM	1100 nM	2000 nM	3900 nM
CC(=O)Nc1cc(NC(C)(C)C(=O)Nc2nc3c(C(F)(F)F)cc4[nH]ncc4c3s2)ccc1F [compound 81]	377 nM	< 100 nM	4200 nM	2400 nM	800 nM	444 nM	1100 nM	1300 nM	4700 nM
CC(C)(Nc1cccc(S(N)(=O)=O)c1)C(=O)Nc1nc2c(C(F)(F)F)cc3[nH]ncc3c2s1 [compound 82]	20 nM	< 100 nM	2100 nM	900 nM	200 nM	14 nM	400 nM	400 nM	2500 nM
CC(C)(Nc1ccc(Cl)c(C(=O)NCC(N)=O)c1)C(=O)Nc1nc2c(C(F)(F)F)cc3[nH]ncc3c2s1 [compound 85]	1.8 nM	< 100 nM	2500 nM	1800 nM	300 nM	71 nM	1300 nM	1200 nM	1800 nM
CC(C)(Nc1ccc(Cl)c(O)c1)C(=O)Nc1nc2c(C(F)(F)F)cc3[nH]ncc3c2s1 [compound 95]	105 nM	100 nM			400 nM	340 nM	1100 nM	1200 nM	4600 nM
O=C(Nc1nc2ccc3[nH]ncc3c2s1)C1(Nc2ccc(Cl)cc2)CC1 [compound 117]	358 nM	< 100 nM	2500 nM	2700 nM	500 nM	317 nM	2200 nM	2800 nM	
CCOC(=O)c1cc(NC2(C(=O)Nc3nc4ccc5[nH]ncc5c4s3)CC2)ccc1Cl [compound 118]		< 100 nM			2000 nM	236 nM			
CC(=O)Nc1cc(NC2(C(=O)Nc3nc4ccc5[nH]ncc5c4s3)CC2)ccc1F [compound 120]		< 100 nM		4800 nM	800 nM	164 nM	3300 nM	1900 nM	
CCC(=O)Nc1cc(NC2(C(=O)Nc3nc4ccc5[nH]ncc5c4s3)CC2)ccc1F [compound 121]		< 100 nM		4800 nM	500 nM	307 nM	3400 nM	2200 nM	4600 nM
CNC(=O)c1cc(NC2(C(=O)Nc3nc4ccc5[nH]ncc5c4s3)CC2)ccc1Cl [compound 126]	145 nM	< 100 nM			1500 nM	58 nM	3700 nM	4200 nM	
CC(=O)Nc1cc(NC(C)(C)C(=O)Nc2nc3ccc4[nH]ncc4c3s2)ccc1Cl [compound 128]		< 100 nM	4600 nM	3500 nM	900 nM	39 nM	1700 nM	1100 nM	3200 nM
CCC(=O)Nc1cc(NC(C)(C)C(=O)Nc2nc3ccc4[nH]ncc4c3s2)ccc1Cl [compound 129]		< 100 nM		4800 nM	800 nM	113 nM	2600 nM	2700 nM	
O=C(Nc1nc2ccc3[nH]ncc3c2s1)C(CO)Nc1ccc(Cl)cc1 (centres unmarked) [compound 132]	379 nM	< 100 nM	1900 nM	1400 nM	600 nM		1400 nM	1700 nM	3700 nM
CC(C)(Nc1ccc(Cl)c(C(N)=O)c1)C(=O)Nc1nc2c(C(F)(F)F)cc3[nH]ncc3c2s1 [compound 135]	83 nM	< 100 nM	1600 nM	1500 nM	300 nM	40 nM	500 nM	900 nM	4100 nM
CC(C)(Nc1ccc(Cl)c(C(=O)NCCCC(=O)O)c1)C(=O)Nc1nc2c(C(F)(F)F)cc3[nH]ncc3c2s1 [compound 144]	297 nM				3300 nM	88 nM			
